Where “and” joins values, the source holds several entries; their conditions need not be identical. Identical values can stand only once. Like-named read-outs stand apart in the source and are kept apart here. Peptide text beside a SMILES is read from it. * marks the point of attachment. FITC = O=C1OC2(c3ccc(O)cc3Oc3cc(O)ccc32)c2ccc(NC(=S)*)cc21; Ahx = NCCCCCC(=O)O
Columns and labels:
[1] = target: Fyn SH3; parameters: method as in Pisabarro and Serrano, 1996; Pisabarro et al., 1998; settings: Fyn SH3, previously published; ref Pisabarro and Serrano, 1996; Pisabarro et al., 1998; read-out: affinity (K D); cited from earlier work
[2] = target: T1, Abl SH3 (Homo sapiens, UniProt P00519); parameters: method as in Pisabarro and Serrano, 1996; Pisabarro et al., 1998; settings: Abl SH3, previously published; ref Pisabarro and Serrano, 1996; Pisabarro et al., 1998; read-out: affinity (K D); cited from earlier work
T1 construct: His6-SUMO (N, cleaved yes); made in house; host or cells: Escherichia coli BL21 DE3

[3] = target: T2, Src SH3 (Homo sapiens, UniProt P12931); experiment: Fluorescence anisotropy binding, Src SH3; settings: 30 nM fluorescent peptide, running buffer + 0.1 mg/mL BSA + 0.5 mM Thesit, average of triplicate experiments, >1,000 = no binding
T2 construct: His6-SUMO (N, cleaved yes); made in house; host or cells: Escherichia coli BL21 DE3
Experimental: (§7) Fluorescence anisotropy assays were performed using a BioTek Synergy H1 plate reader, as previously described [([Tahti et al., 2023]; [Gao et al., 2020]; [Wofford et al., 2021]; [Valgardson et al., 2019])]. Solution conditions included running buffer plus 0.1 mg/mL bovine serine albumin (BSA) and 0.5 mM Thesit, with 30 nM fluorescent peptide. Determined K D values were the average calculated from triplicate experiments ([Cushing et al., 2008]). K d values were determined as previously, and as the midpoint between the anisotropy resulting from the free reporter peptide and SH3-peptide complex [([Cushing et al., 2008]; [Vouilleme et al., 2010]; [Amacher et al., 2013]; [Amacher et al., 2014])].

[4] = target: T3, W122C SrcAbl SH3 (Homo sapiens, UniProt P12931, D120E/E100D/E118N/E96V/R98S/S97A/T101N/T117H/T99G/W122C); experiment: Fluorescence anisotropy binding, W122C SrcAbl SH3; settings: 30 nM fluorescent peptide, running buffer + 0.1 mg/mL BSA + 0.5 mM Thesit, average of triplicate experiments
T3 construct: His6-SUMO (N, cleaved yes); made in house; host or cells: Escherichia coli BL21 DE3
Text: (§1) Therefore, we wanted to engineer chimeric proteins to test if these loops alone could mediate specificity switching. In our chimeras, we swapped both the RT (sequence: ^96ESRTET^101) and nSrc (^117TEGD^120) loops of Src with the RT (^73VASGDN^78) and nSrc (^95HNGE^98) loop sequences of Abl, and vice versa in each SH3 domain. We termed the resulting proteins, SrcAbl and AblSrc, where the subscript indicates the sequence identity of both the RT and nSrc loops.
(§2) Sequences corresponding to the Abl and Src SH3 (residues 84-145, UniProt ID SRC_HUMAN) domains were used for the wild-type SH3 domains. All proteins were expressed as His6-SUMO fusion proteins using the pET28a (+) plasmid (Genscript). […]
(§3) Briefly, plasmids were transformed into BL21 DE3 chemically competent Escherichia coli cells. […] SDS-PAGE was used to assess protein purity and the absorbance at λ = 280 nm with the calculated extinction coefficient (s), by Expasy ProtParam, was used to calculate protein concentration ([Wilkins et al., 1999]).
(§4) Fluorescence anisotropy assays were performed using a BioTek Synergy H1 plate reader, as previously described [([Tahti et al., 2023]; [Gao et al., 2020]; [Wofford et al., 2021]; [Valgardson et al., 2019])]. […] Determined K D values were the average calculated from triplicate experiments ([Cushing et al., 2008]). […]

[5] = target: T4, W122C Src SH3 (Homo sapiens, UniProt P12931, W122C); experiment: Fluorescence anisotropy binding, W122C Src SH3; settings: 30 nM fluorescent peptide, running buffer + 0.1 mg/mL BSA + 0.5 mM Thesit, average of triplicate experiments
T4 construct: His6-SUMO (N, cleaved yes); made in house; host or cells: Escherichia coli BL21 DE3
Experimental: as §7

[6] = target: T1, Abl SH3; experiment: Fluorescence anisotropy binding, Abl SH3; settings: 30 nM fluorescent peptide, running buffer + 0.1 mg/mL BSA + 0.5 mM Thesit, average of triplicate experiments
Text: (§5) Sequences corresponding to the Abl and Src SH3 (residues 84-145, UniProt ID SRC_HUMAN) domains were used for the wild-type SH3 domains. All proteins were expressed as His6-SUMO fusion proteins using the pET28a (+) plasmid (Genscript). Expression and purification protocols were similar to those used previously for other SLiM-binding domains [([Tahti et al., 2023]; [Gao et al., 2020]; [Wofford et al., 2021])]. All sequences used are in the Supporting Information.
(§6) Briefly, plasmids were transformed into BL21 DE3 chemically competent Escherichia coli cells. Selected colonies were grown in Terrific Broth (TB) at 37°C with shaking at 210 rpm. Once an optical density (OD) of 0.6–0.8 at λ = 600 nm was reached, protein expression was induced by the addition of 0.15 mM isopropyl-β-D-1-thiogalactopyranoside (IPTG) for 16–18 h at 18°C. […] SDS-PAGE was used to assess protein purity and the absorbance at λ = 280 nm with the calculated extinction coefficient (s), by Expasy ProtParam, was used to calculate protein concentration ([Wilkins et al., 1999]).
as §4

[7] = target: T5, AblSrc SH3 (Homo sapiens, UniProt P00519, A74S/D77E/E98D/G76T/H95T/N78T/N96E/S75R/V73E); experiment: Fluorescence anisotropy binding, AblSrc SH3 chimera (Abl SH3 with Src RT and nSrc loops); settings: 30 nM fluorescent peptide, running buffer + 0.1 mg/mL BSA + 0.5 mM Thesit, average of triplicate experiments, >1,000 = undetectable
T5 construct: His6-SUMO (N, cleaved yes); made in house; host or cells: Escherichia coli BL21 DE3
T5 sequence (P00519 61-121 V73E/A74S/S75R/G76T/D77E/N78T/H95T/N96E/E98D limits assumed): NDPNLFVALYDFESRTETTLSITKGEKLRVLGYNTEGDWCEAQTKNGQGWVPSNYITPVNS
Text: as §1, §2, §3, §4

[8] = target: T6, C100W Abl SH3 (Homo sapiens, UniProt P00519, C100W); experiment: Fluorescence anisotropy binding, C100W Abl SH3; settings: 30 nM fluorescent peptide, running buffer + 0.1 mg/mL BSA + 0.5 mM Thesit, average of triplicate experiments, >1,000 = undetectable
T6 construct: His6-SUMO (N, cleaved yes); made in house; host or cells: Escherichia coli BL21 DE3
Text: as §5, §6, §4

[9] = target: T7, SrcAbl SH3 (Homo sapiens, UniProt P12931, D120E/E100D/E118N/E96V/R98S/S97A/T101N/T117H/T99G); experiment: Fluorescence anisotropy binding, SrcAbl SH3 chimera (Src SH3 with Abl RT and nSrc loops); settings: 30 nM fluorescent peptide, running buffer + 0.1 mg/mL BSA + 0.5 mM Thesit, average of triplicate experiments
T7 construct: His6-SUMO (N, cleaved yes); made in house; host or cells: Escherichia coli BL21 DE3

T1 sequence (P00519 61-121 limits assumed): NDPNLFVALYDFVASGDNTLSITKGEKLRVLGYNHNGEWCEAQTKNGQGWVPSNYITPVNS
T6 sequence (P00519 61-121 C100W limits assumed): as the sequence (P00519 61-121 limits assumed) above, with C40W counted along it

Compound	Kd [1]	Kd [2]	Kd [3]	Kd [4]	Kd [5]	Kd [6]	Kd [7]	Kd [8]	Kd [9]
RAPTMPPPLPP [initial ligand, derived from the 3BP1 protein]	30 µM	30 µM							
C[C@H](N)C(=O)N1CCC[C@H]1C(=O)N[C@H](C(=O)N[C@@H](Cc1ccc(O)cc1)C(=O)N[C@@H](CO)C(=O)N1CCC[C@H]1C(=O)N1CCC[C@H]1C(=O)N1CCC[C@H]1C(=O)N1CCC[C@H]1C(=O)N1CCC[C@H]1C(=O)O)[C@@H](C)O [p40] (H-APTYSPPPPP-OH; N-terminus and C-terminus assumed)	472 µM and 470 µM		> 1000 µM						
C[C@H](NC(=O)CCCCCNC(=S)Nc1ccc2c(c1)C(=O)OC21c2ccc(O)cc2Oc2cc(O)ccc21)C(=O)N1CCC[C@H]1C(=O)N[C@H](C(=O)N[C@@H](Cc1ccc(O)cc1)C(=O)N[C@@H](CO)C(=O)N1CCC[C@H]1C(=O)N1CCC[C@H]1C(=O)N1CCC[C@H]1C(=O)N1CCC[C@H]1C(=O)N1CCC[C@H]1C(=O)O)[C@@H](C)O [F*-p40] ({FITC-Ahx}-APTYSPPPPP-OH)			> 1000 µM	450 ± 190 µM	> 1000 µM	3.1 ± 0.4 µM	210 ± 30 µM	55 ± 20 µM	130 ± 40 µM
CC(C)C[C@H](NC(=O)CCCCCNC(=S)Nc1ccc2c(c1)C(=O)OC21c2ccc(O)cc2Oc2cc(O)ccc21)C(=O)N[C@@H](C)C(=O)N[C@@H](CO)C(=O)N[C@@H](CCCNC(=N)N)C(=O)N1CCC[C@H]1C(=O)N[C@@H](CC(C)C)C(=O)N1CCC[C@H]1C(=O)N[C@@H](CC(C)C)C(=O)N[C@@H](CC(C)C)C(=O)N1CCC[C@H]1C(=O)O [F*-PLLP]				> 1000 µM		> 1000 µM	> 1000 µM	> 1000 µM	140 ± 20 µM

— publication PMC11653366, “The conformation of the nSrc specificity-determining loop in the Src SH3 domain is modulated by a WX conserved sequence motif found in SH3 domains” (Frontiers in Molecular Biosciences, 2024)
